What was measured:
[1] = test system: C57BL/6J mice with intra-mPFC endoNF injection; experiment: Novel object recognition test before and after intra-mPFC endoNF injection; assay type: in vivo, mouse; conditions: 30 min before encoding; sarcosine 600 mg/kg i.p. (d2); DP12 (d5) and DP1 (d6) 1 mg/kg intranasally
Protocol: Guide cannulas were fabricated using stainless steel tubing with outer/inner diameter Ø 0.711/0.483 mm (Science Products, Germany). Dummy cannulas were made from entomological pins, size 2, Ø 0.41 mm (FST, Germany). Chronic implantation of cannulas into the mPFC in mice was performed as described previously for intrahippocampal injections (Kochlamazashvili et al., 2012; Senkov et al., 2015; Senkov et al., 2006).
Acute injection of endoNF in vivo was done under a short isoflurane anesthesia. For intra-mPFC injection, we used a digitally controlled infusion system (UltraMicroPump, UMP3, and Micro4 Controller, WPI, USA) fed with a 10 μl-Hamilton syringe and NanoFil 135 μm (35 GA) beveled needle. The thin (135 μm) part of the needle went into the mouse brain during injection, whereas its thick part (430 μm) fit perfectly in the guide cannula (inside 483 μm). Injections were performed as follows: 1) a mouse was anesthetized with 1-3% isoflurane as during implantation; 2) it was put into the stereotaxic frame; 3) the dummy cannula was gently removed from the left guide cannula; 4) a NanoFil injecting needle was carefully placed inside of the guide cannula and advanced further down until reaching the marker (made with a permanent pen at the needle shank (430 μm) to visualize the point when the needle should reach the surface of the brain coming out of the guide cannula (equal to the length of guide cannula); 5) once the marker was reached, a slow (10 μm increment) step dial was used to deepen the needle into the brain; 6) endoNF (2 μg/μl) or vehicle was injected with the following settings: 250 nl per site as deep as 1.5 and 2.25 mm from the brain surface (total injection volume per hemisphere 500 nl, injection rate of 3 nl/s); 7) after injection was complete (˜5 min), the needle was left in the injection site for another 5 min and then gently removed; 8) the dummy cannula was then put back to its place; 9) the same procedure was performed for the right hemisphere. The whole injection process took approximately 20-25 min under isoflurane anesthesia, and the mice recovered rather quickly, starting to move in approximately 2-3 min after being returned to their home cages. Complete recovery of a mouse after such short anesthesia usually occurs within 3-5 min. After injection, mice were returned to their animal facility. Behavior experiments started on the day after injection at approximately the same time, so that we could perform cognitive tests 24 hours after injection.
A white open field arena (50×50×30 cm) was used in the novel object recognition task. All behavior was video recorded and analyzed automatically by software (ANY-maze, version 4.99, Stoelting Co., Wood Dale, Ill.). […]

[2] = test system: CA3-CA1 synapses in slices from 5×FAD mice; experiment: LTP in CA3-CA1 synapses in slices from 5×FAD mice; assay type: cell-based, mouse; conditions: bath application 1 μg/ml (approx. 0.3 μM)
Protocol: LTP was induced by application of five trains of theta-burst stimulation (TBS) with an inter-theta-train interval of 20 s (Brennaman et al., 2011). Each train consisted of 8 bursts delivered at 5 Hz. Each burst consisted of four pulses delivered at 100 Hz. Duration of pulses was 0.2 ms. For calculation of the LTP level, the mean fEPSP slope was measured between 50-60 min after TBS delivery, and it was then normalized to mean baseline fEPSP slope during 0-10 min before TBS. Stimulus artifacts in representative fEPSP examples in figures were blanked to facilitate the perception of fEPSPs recorded in the mPFC. Recording and analysis of LTP in St8Sia4^−/− mice was performed in a blind manner.
Finally, we tested if DP12 would have an effect in the 5×FAD mouse model of AD associated with amyloidosis and upregulation of extracellular glutamate and signaling through extra synaptic GluN2B receptors. Using a special slice incubation chamber with improved oxygen supply, we were able to induce LTP in CA3-CA1 synapses in slices from 5×FAD mice (FIG. 8).

With (α(2→8)Neu5Ac)12 [DP12] the “novel object recognition after intra-mPFC endoNF injection” value [1] was “significantly improved novel object recognition” and the “LTP levels 50-60 min after theta-burst stimulation” value [2] was “strongly increased”.
